In patent US5618795A, “Dibekacin derivatives and arbekacin derivatives active against resistant bacteria, and the production thereof” (Zaidan Hojin Biseibutsu Kagaku Kenkyu Kai, priority 1992, dated 1997):
Values after ≈ are worked out from the molar mass of the structure shown. Where two headings read alike, the source gives them in different places.

Tests used:
[1] = system: clinically isolated strains of MRSA; experiment: Antibacterial MIC spectra against 50 clinically isolated strains of MRSA; assay type: cell-based, methicillin-resistant Staphylococcus aureus; details: Staphylococcus aureus; for MIC50: 50% of the 50 MRSA strains inhibited, read-out: MIC50; for MIC: range over 50 clinically isolated strains of MRSA, read-out: Antibacterial MIC spectra
Protocol: (§1) Minimum growth inhibitory concentrations (MIC) of each of 2"-amino-2"-deoxyarbekacin (Compound Ia), 2"-amino-5,2"-dideoxyarbekacin (Compound Ib), 2"-amino-2"-deoxydibekacin (Compound IIa) and 2"-amino-5,2"-dideoxydibekacin (Compound IIb) against various bacteria (20 strains) and against clinically isolated strains of MRSA (50 strains) were determined by standard serial dilution method on Muller-Hinton's agar medium (as estimated after cultivating at 27° C. for 18 hours), and the test results obtained are shown in TABLE 3 and TABLE 4, respectively.
Note:- MIC50 or MIC90 represents the concentration of tested
active compound at which 50% or 90% of the total numbers of the bacterial
strains tested were inhibited from their growth. DKB denotes dibekacin,
(§2) Minimum growth inhibitory concentrations (MIC) of each of 2"-amino-5,2"-dideoxy-5-epi-fluoroarbekacin (Compound XVIa) and 2"-amino-5,2"-dideoxy-5-epi-aminoarbekacin (Compound XVIb) against various bacteria (18 strains) and against clinically isolated strains of MRSA (50 strains) were determined by standard serial dilution method on Muller-Hinton's agar medium (as estimated after cultivation at 27° C. for 18 hours), and the test results obtained are shown in TABLE 5 and TABLE 6, respectively.

[2] = system: strain of MRSA which exhibits a moderate resistance to arbekacin; experiment: Minimum growth inhibitory concentration against MRSA strain moderately resistant to arbekacin; assay type: cell-based, methicillin-resistant Staphylococcus aureus; details: Staphylococcus aureus, read-out: minimum growth inhibitory concentration of arbekacin
[3] = system: Klebsiella pneumoniae PCI602; experiment: MIC by standard serial dilution method on Muller-Hinton's agar; assay type: cell-based; details: PCI602, Table 3, 27° C., 18 hours, read-out: MIC
Protocol: as §1, §2

[4] = system: Shigella dysenteriae JSI1910; experiment: as above; assay type: cell-based; details: JSI1910, 18 h
Protocol: as §1, §2

Salmonella typhi T-63 = experiment: as above; assay type: cell-based; details: Salmonella enterica, Table 3, 27° C., 18 hours
Protocol: as §1, §2

E. coli K-12 LA290 R55 = experiment: as above; assay type: cell-based; details: Escherichia coli, K12LA290R55, 18 h
Protocol: as §1, §2

E. coli JR66/W677 = experiment: as above; assay type: cell-based; details: Escherichia coli, JR66/W677, 18 h
Protocol: as §1, §2

E. coli K-12 ML1629 = experiment: as above; assay type: cell-based; details: Escherichia coli, K12ML1629; Table 3; 27° C., 18 hours; read-out: MIC
Protocol: as §1, §2

S. epidermidis 109 = experiment: as above; assay type: cell-based; details: Staphylococcus epidermidis, 109; Table 3; 27° C., 18 hours; read-out: MIC
Protocol: as §1, §2

P. aeruginosa TI-13 = experiment: as above; assay type: cell-based; details: Pseudomonas aeruginosa, TI13, 18 h
Protocol: as §1, §2

[5] = system: Staphylococcus aureus FDA209P; experiment: as above; assay type: cell-based; details: Table 3, 27° C., 18 hours
Protocol: as §1, §2

Proteus vulgaris OX19 = experiment: as above; assay type: cell-based; details: OX19, Table 3, 27° C., 18 hours, read-out: MIC
Protocol: as §1, §2

P. aeruginosa PST1 = experiment: as above; assay type: cell-based; details: Pseudomonas aeruginosa, Table 3, 27° C., 18 hours
Protocol: as §1, §2

Serratia marcescens = experiment: as above; assay type: cell-based; details: Table 3, 27° C., 18 hours, read-out: MIC
Protocol: as §1, §2

P. aeruginosa H9 = experiment: as above; assay type: cell-based; details: Pseudomonas aeruginosa, H9; Table 3; 27° C., 18 hours; read-out: MIC
Protocol: as §1, §2

[6] = system: Providencia rettgeri GN311; experiment: as above; assay type: cell-based; details: GN311, Table 3, 27° C., 18 hours, read-out: MIC
Protocol: as §1, §2

[7] = system: Pseudomonas aeruginosa A3; experiment: as above; assay type: cell-based; details: A3, Table 3, 27° C., 18 hours, read-out: MIC
Protocol: as §1, §2

S. aureus Smith = experiment: as above; assay type: cell-based; details: Staphylococcus aureus; Table 3; 27° C., 18 hours
Protocol: as §1, §2

Bacillus subtilis PCI219 = experiment: as above; assay type: cell-based; details: Table 3, 27° C., 18 hours
Protocol: as §1, §2

Escherichia coli NIHJ = experiment: as above; assay type: cell-based; details: Table 3, 27° C., 18 hours
Protocol: as §1, §2

[8] = Acute toxicity, single intravenous administration to mice; assay type: in vivo; details: mouse, in vivo, iv
From the text: (§3) 50% Lethal dosages (LD50, observations for two weeks) of the new compounds of this invention as estimated upon single intravenous administration to mice (ICR-strain, 4 weeks old, female) are as follows:
(§4) 50% Lethal dosages (LD50, observations for two weeks) of the new compounds of general formula (XVI) according to the seventh aspect of this invention as estimated upon single intravenous administration to mice (ICR-strain, 4 weeks old, female) are as follows: […]

mice = experiment: as above; assay type: in vivo; details: mice / mammals
From the text: as §3, §4

B. cereus ATCC10702 = experiment: MIC by standard serial dilution method on Muller-Hinton's agar; assay type: cell-based; details: Bacillus cereus, ATCC10702; Table 3; 27° C., 18 hours; read-out: MIC
Protocol: as §1

E. coli K-12 ML1410 = experiment: as above; assay type: cell-based; details: Escherichia coli, K12ML1410; Table 3; 27° C., 18 hours
Protocol: as §1

[9] = system: gram-positive and gram-negative bacteria; experiment: Antibacterial activities against gram-positive and gram-negative bacteria; assay type: cell-based
Protocol: as §1, §2

Solubility in water = assay type: physicochemical

Compound NCC[C@H](O)C(=O)N[C@@H]1C[C@H](N)[C@@H](O[C@H]2O[C@H](CN)CC[C@H]2N)[C@H](O)[C@H]1O[C@H]1O[C@H](CO)[C@@H](O)[C@H](N)[C@H]1O [ABK, (S)-1-N-(4-amino2-hydroxybutyryl)dibekacin, reference compound] has an MIC50 ([1]; 27° C., 18 hours) of 0.39 µg/mL (≈ 0.706 µM), an MIC90 ([1]; 90% of the 50 MRSA strains inhibited, 27° C., 18 hours, read-out: MIC90) of 6.25 µg/mL (≈ 11.3 µM) and an MIC ([1]; 27° C., 18 hours) of 0.2 to 6.25 µg/mL (≈ 0.362 to 11.3 µM). For the same compound, the MIC [2] was 6.25 to 12.5 µg/mL (≈ 11.3 to 22.6 µM).
Compound NCC[C@H](O)C(=O)N[C@@H]1C[C@H](N)[C@@H](O[C@H]2O[C@H](CN)CC[C@H]2N)C[C@H]1O[C@H]1O[C@H](CO)[C@@H](O)[C@H](N)[C@H]1N [Compound Ib, 2"-Amino-5,2"-dideoxyarbekacin] has an MIC [3] of 0.78 µg/mL (≈ 1.46 µM), an MIC [4] of 1.56 µg/mL (≈ 2.91 µM) and an MIC (Salmonella typhi T-63) of 0.78 µg/mL (≈ 1.46 µM). The MIC (E. coli K-12 LA290 R55) was 0.78 µg/mL (≈ 1.46 µM), the MIC (E. coli JR66/W677) was 3.13 µg/mL (≈ 5.84 µM) and the MIC (E. coli K-12 ML1629) was 1.56 µg/mL (≈ 2.91 µM). It also gave an MIC (S. epidermidis 109) of 0.39 µg/mL (≈ 0.728 µM), an MIC (P. aeruginosa TI-13) of 1.56 µg/mL (≈ 2.91 µM) and an MIC [5] of no more than 0.2 µg/mL. It also gave an MIC (Proteus vulgaris OX19) of 0.78 µg/mL (≈ 1.46 µM), an MIC (P. aeruginosa PST1) of 6.25 µg/mL (≈ 11.7 µM) and an MIC (Serratia marcescens) of 6.25 µg/mL (≈ 11.7 µM). It also gave an MIC (P. aeruginosa H9) of 3.13 µg/mL (≈ 5.84 µM), an MIC [6] of 0.78 µg/mL (≈ 1.46 µM) and an MIC [7] of 0.39 µg/mL (≈ 0.728 µM). It also gave an MIC (S. aureus Smith) of no more than 0.2 µg/mL, an MIC (Bacillus subtilis PCI219) of no more than 0.2 µg/mL and an MIC (Escherichia coli NIHJ) of 0.39 µg/mL (≈ 0.728 µM). The LD50 at 336 h [8] was 50 to 100 mg/kg, the “acute toxicity (in words)” value (mice) was “higher acute toxicity to mice than that of 2"-amino-2"-deoxyarbekacin” and the MIC (B. cereus ATCC10702) was 0.78 µg/mL (≈ 1.46 µM). For the same compound, the MIC (E. coli K-12 ML1410) was 1.56 µg/mL (≈ 2.91 µM), the MIC90 ([1]; MRSA, 18 h) was 1.56 µg/mL (≈ 2.91 µM) and the MIC50 ([1]; 27° C., 18 hours) was 0.78 µg/mL (≈ 1.46 µM). For the same compound, the MIC ([1]; 27° C., 18 hours) was 0.2 to 3.13 µg/mL (≈ 0.373 to 5.84 µM), the “antibacterial activity (in words)” value [9] was “broad and excellent antibacterial activity” and the Solubility (Solubility in water) was “easily soluble in water”.
